Test results taken from the supplement of paper PMC10307832.

What was measured:
Assay in all cases: relative viability (nuclei count vs DMSO), 5 days (fraction); higher = more cells survive
Mirin + Alpelisib = compound: N=C1NC(=O)/C(=C/c2ccc(O)cc2)S1 [Mirin] + Cc1nc(NC(=O)N2CCC[C@H]2C(N)=O)sc1-c1ccnc(C(C)(C)C(F)(F)F)c1 [Alpelisib] (partner 2 µM)
Summary of the method: (§1)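 Lung cancer cell lines were seeded in 1536-well plates and dosed by pin tool the next day, with either a single drug or a fixed anchor-drug dose combined with five library-drug doses (not always all listed) spaced in √10 steps. Five days later, one step fixed the cells and stained their nuclei (final 0.05% Triton X-100, 1% formaldehyde, 1 ug/ml Hoechst), and nuclei were counted on 4× images. Relative viability is the nuclei count in treated wells divided by the count in vehicle wells, and each value is the median of duplicate plates.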

Mirin + Decitabine = compound: N=C1NC(=O)/C(=C/c2ccc(O)cc2)S1 [Mirin] + Nc1ncn([C@H]2C[C@H](O)[C@@H](CO)O2)c(=O)n1 [Decitabine] (partner 2 µM)
Summary of the method: as §1

[1] = compound: CCC1=CN=CN=C1N2CCN(CC2)CC3=NC4=C(N3)C=C(C=C4)C(F)(F)F + Nc1nc2[nH]cc(CCc3ccc(C(=O)N[C@@H](CCC(=O)O)C(=O)O)cc3)c2c(=O)[nH]1 [Pemetrexed] (partner 0.2 µM)
Summary of the method: as §1

[2] = compound: CCC1=CN=CN=C1N2CCN(CC2)CC3=NC4=C(N3)C=C(C=C4)C(F)(F)F + CC(=O)Nc1cccc(-n2c(=O)n(C3CC3)c(=O)c3c(Nc4ccc(I)cc4F)n(C)c(=O)c(C)c32)c1 [Trametinib] (partner 0.02 µM)
Summary of the method: as §1

Cell Line	relative viability (Mirin + Alpelisib; first compound 0.25 µM)	relative viability (Mirin + Alpelisib; first compound 0.7906 µM)	relative viability (Mirin + Alpelisib; first compound 2.5 µM)	relative viability (Mirin + Alpelisib; first compound 7.906 µM)	relative viability (Mirin + Alpelisib; first compound 25 µM)	relative viability (Mirin + Decitabine; first compound 0.25 µM)	relative viability (Mirin + Decitabine; first compound 2.5 µM)	relative viability (Mirin + Decitabine; first compound 7.906 µM)	relative viability (Mirin + Decitabine; first compound 25 µM)	relative viability ([1]; first compound 0.04 µM)	relative viability ([1]; first compound 0.1265 µM)	relative viability ([1]; first compound 0.4 µM)	relative viability ([1]; first compound 4 µM)	relative viability ([2]; first compound 0.04 µM)	relative viability ([2]; first compound 0.1265 µM)	relative viability ([2]; first compound 0.4 µM)	relative viability ([2]; first compound 4 µM)	relative viability (Mirin + Decitabine; first compound 0.7906 µM)	relative viability ([1]; first compound 1.265 µM)	relative viability ([2]; first compound 1.265 µM)
NCI-H2405	0.762	0.774	0.781	0.727	0.622	0.72	0.691	0.725	0.708	1.02	1.05	0.992	1.15	0.676	0.666	0.624	0.68	–	–	–
201T	1.01	1	1.02	1.11	1.14	0.877	0.842	0.939	1	0.274	0.312	0.297	0.375	0.725	0.73	0.747	0.694	0.885	0.322	0.711
PC-3 [JPC-3]	1.04	1.02	1.03	1.07	1.18	0.818	0.825	0.76	0.836	–	0.983	1.07	1.09	–	0.632	0.671	0.682	0.825	0.959	0.634
NCI-H838	0.966	1	0.961	1.03	0.965	0.432	0.517	0.424	0.361	0.248	0.239	0.247	0.225	0.574	0.481	0.455	0.648	0.424	0.244	0.412
NCI-H1792	0.743	0.691	0.81	0.613	0.641	0.5	0.665	0.516	0.573	0.773	0.736	0.82	0.665	0.585	0.389	0.403	0.522	0.504	–	–
COR-L23	0.847	0.822	0.758	0.715	0.682	0.447	0.466	0.426	0.409	0.208	0.199	0.189	0.206	0.569	0.682	0.524	0.583	0.505	0.198	0.47
HOP-62	0.969	1.02	1.13	–	0.939	0.221	0.203	0.224	0.218	0.283	0.293	0.326	0.283	0.424	0.378	0.373	0.355	0.188	0.275	0.346
NCI-H1915	1.04	–	1.09	0.948	1.08	0.275	0.278	0.255	0.255	0.537	0.511	0.529	0.498	0.286	0.337	0.293	0.287	0.252	0.479	0.248
BEN	1.03	1.08	1.09	0.973	0.467	0.553	0.661	0.67	0.522	0.605	0.651	0.667	0.676	1.09	1.18	0.975	0.709	0.711	0.551	0.742
NCI-H1437	0.979	0.884	0.832	0.705	0.474	0.571	0.606	0.647	0.555	0.296	0.295	0.306	0.224	0.539	0.42	0.421	0.438	0.559	0.35	0.423
EMC-BAC-2	0.771	0.838	0.756	0.698	0.685	0.997	0.977	0.949	1.09	0.436	0.43	0.455	0.469	–	0.857	0.841	0.951	1.02	0.418	0.891
NCI-H2087	1.07	1.06	1.13	1.24	1.08	0.245	0.286	0.24	0.208	0.634	0.732	0.72	0.55	0.172	0.226	0.244	0.189	0.215	0.632	0.215
NCI-H650	1.04	–	1.09	–	1.1	0.32	0.306	0.294	0.354	0.806	0.866	0.99	0.973	0.95	0.996	0.985	0.856	0.335	0.837	0.814
LXF-289	1.03	1.05	1.06	1.13	1.03	0.347	0.335	0.347	0.387	0.938	0.777	0.915	0.788	0.709	0.696	0.659	0.67	0.394	0.977	0.684
LOU-NH91	0.726	–	0.728	0.65	0.747	0.799	0.874	0.9	1.03	0.377	0.318	0.378	0.379	0.782	0.768	0.789	0.817	0.843	0.348	0.727
NCI-H2347	1.02	1.12	1.05	1.08	1.16	0.595	0.604	0.604	0.611	0.422	0.408	0.434	0.442	0.295	0.333	0.313	0.293	0.599	0.373	0.249
NCI-H1993	0.663	0.779	0.681	0.65	0.674	0.656	0.663	0.525	0.551	0.597	0.644	0.575	0.674	0.493	0.658	0.552	0.644	0.46	0.513	0.549

Cell Line	relative viability (Mirin + Alpelisib; first compound 0.25 µM)	relative viability (Mirin + Alpelisib; first compound 0.7906 µM)	relative viability (Mirin + Alpelisib; first compound 2.5 µM)	relative viability (Mirin + Alpelisib; first compound 7.906 µM)	relative viability (Mirin + Alpelisib; first compound 25 µM)	relative viability (Mirin + Decitabine; first compound 0.25 µM)	relative viability (Mirin + Decitabine; first compound 2.5 µM)	relative viability (Mirin + Decitabine; first compound 7.906 µM)	relative viability (Mirin + Decitabine; first compound 25 µM)	relative viability ([1]; first compound 0.04 µM)	relative viability ([1]; first compound 0.1265 µM)	relative viability ([1]; first compound 0.4 µM)	relative viability ([1]; first compound 4 µM)	relative viability ([2]; first compound 0.04 µM)	relative viability ([2]; first compound 0.1265 µM)	relative viability ([2]; first compound 0.4 µM)	relative viability ([2]; first compound 4 µM)	relative viability (Mirin + Decitabine; first compound 0.7906 µM)	relative viability ([1]; first compound 1.265 µM)	relative viability ([2]; first compound 1.265 µM)
HCC-827	1.02	1.02	0.958	1.01	1.12	0.17	0.36	0.308	0.351	0.268	0.221	0.276	0.278	0.483	0.51	0.544	0.553	0.262	0.242	0.497
NCI-H661	0.657	0.554	0.612	0.323	0.602	0.587	0.539	0.501	0.525	0.908	0.973	0.941	0.921	0.638	0.591	0.508	0.49	0.569	0.921	0.471
PC-14	0.83	0.915	1.01	0.95	1.05	0.2	0.232	0.225	0.205	0.135	0.153	0.141	0.135	0.828	0.808	0.714	0.779	0.24	0.13	0.71
NCI-H23	0.655	–	0.723	0.642	0.442	0.298	0.292	0.295	0.284	0.579	0.755	0.615	0.558	0.405	0.409	0.396	0.385	–	0.646	0.375
SK-LU-1	1.12	0.885	1.07	0.698	0.53	0.713	0.8	0.494	0.509	0.892	0.992	0.958	0.998	0.635	0.483	0.465	0.476	0.618	0.985	0.35
HCC-366	0.34	0.37	0.545	0.296	0.253	0.342	0.325	0.322	0.374	0.174	0.22	0.156	0.15	0.344	0.372	0.349	0.269	0.315	0.137	0.285
SW 1573	0.529	0.72	0.794	0.665	0.508	0.605	0.482	0.412	0.247	0.884	0.947	0.83	0.885	0.652	0.58	0.513	0.497	0.61	0.747	0.47
HCC-44	0.852	0.879	0.806	0.762	0.705	0.938	0.99	0.922	1.01	0.635	0.63	0.684	0.644	1.06	0.994	1.02	0.915	0.958	0.685	0.963
A-427	1.2	–	1.15	1.1	1.14	0.554	0.546	0.521	0.514	0.761	0.934	0.873	0.898	0.631	0.731	0.675	0.637	0.479	0.835	0.615
NCI-H441	0.537	1.11	0.631	0.536	0.507	0.251	0.244	0.217	0.218	0.231	0.274	0.274	0.265	0.482	0.452	0.464	0.499	0.259	0.204	0.37
LK-2	0.899	–	1.1	0.743	0.397	0.161	0.299	0.21	0.227	0.281	0.259	0.253	0.302	0.854	0.727	0.666	0.567	0.206	0.199	0.452
NCI-H2023	0.588	0.594	0.616	0.616	0.555	0.237	0.216	0.228	0.225	0.452	0.25	0.204	0.232	0.533	0.53	0.527	0.453	0.238	0.239	0.513
NCI-H647	1.24	1.36	1.15	1.22	0.657	0.446	0.361	0.401	0.387	0.165	0.173	0.166	0.135	0.501	0.543	0.469	0.448	0.423	0.159	0.238
SK-MES-1	0.976	0.908	0.994	0.969	0.798	0.347	0.372	0.292	0.329	1.03	1.01	1	1.03	0.569	0.503	0.582	0.563	0.446	0.993	0.516
NCI-H1793	0.724	0.747	0.775	0.764	0.482	0.472	0.434	0.52	0.48	0.862	0.786	0.613	0.82	0.459	0.4	0.397	0.349	–	0.52	0.362
NCI-H3122	0.715	0.823	0.729	0.923	0.821	0.41	0.432	0.372	0.353	0.21	0.184	0.202	0.215	0.19	0.248	0.201	0.184	0.431	0.203	0.219
